In US20220273659A1, “HETEROCYCLIC COMPOUNDS AS KINASE INHIBITORS” (NUVATION BIO INC., priority 2019, published 2022):

Experiments:
CDK12 (cyclin K) = target: T1, CDK12 (cyclin K) (Homo sapiens, UniProt Q9NYV4); test: KinaseProfiler radiometric protein kinase assay; type: biochemical
T1 construct: purchased Eurofins Pharma Discovery (assay service)
Procedure: IC50 values of compounds against CDK12 (cyclin K) were determined by KinaseProfiler™ radiometric protein kinase assay at Eurofins Pharma Discovery (Dundee, UK). Compounds were prepared to 50× final assay concentration in 100% DMSO. This working stock of the compound was added to the assay well as the first component in each reaction. CDK12/Cyclin K was diluted in buffer (20 mM TRIS, 0.2 mM EDTA, 0.1%-mercaptoethanol, 0.01% Brij-35, 5% glycerol, mg/ml BSA) prior to addition to the reaction mix. CDK12/Cyclin K was incubated with 20 mM Tris/HCl pH 8.5, 0.2 mM EDTA, 300 μM SRSRSRSRSRSRSR, 10 mM Magnesium acetate and [γ-^33P-ATP] (specific activity and concentration as required). The reaction was initiated by the addition of the Mg/ATP mix. After incubation for 120 minutes at room temperature, the reaction was stopped by the addition of phosphoric acid to a concentration of 0.5%. 10 μl of the stopped reaction was spotted onto a P30 filtermat and washed four times for 4 minutes in 0.425% phosphoric acid and once in methanol prior to drying and scintillation counting. Results were calculated as a percentage of the mean kinase activity in positive control samples. Data were fitted in XLfit for determination of IC50 values.

CDK9 (cyclin K) = target: T2, CDK9 (cyclin K) (Homo sapiens, UniProt P50750); test: LanthaScreen Eu Kinase Binding Assay
T2 construct: purchased Invitrogen Life Technologies (assay service)
Procedure: 0.16 μL of 100×test compound in 100% DMSO (at specific solutions) were mixed with 3.84 μL of Kinase Buffer (50 mM HEPES pH 7.5, 0.01% BRIJ-35, 10 mM MgCl2, 1 mM EGTA), 8.0 μL of 2× Kinase (5 nM)/Antibody (Eu-anti-His, 2 nM) Mixture and 4.0 μL of 4×Tracer (Tracer 236, 100 nM). The plates were shaken for 30 seconds, and incubated for 60 minutes at room temperature. The plates were read on fluorescence plate reader with Dual emission at 615 nm and 665 nm.
The following equations were used for LanthaScreen Eu Kinase Binding Assay Data Analysis. Percent inhibition (100-% activity) was fitted to the “four-parameter logistic model” in XLfit for determination of IC50 values.

T1 sequence (Q9NYV4 whole entry): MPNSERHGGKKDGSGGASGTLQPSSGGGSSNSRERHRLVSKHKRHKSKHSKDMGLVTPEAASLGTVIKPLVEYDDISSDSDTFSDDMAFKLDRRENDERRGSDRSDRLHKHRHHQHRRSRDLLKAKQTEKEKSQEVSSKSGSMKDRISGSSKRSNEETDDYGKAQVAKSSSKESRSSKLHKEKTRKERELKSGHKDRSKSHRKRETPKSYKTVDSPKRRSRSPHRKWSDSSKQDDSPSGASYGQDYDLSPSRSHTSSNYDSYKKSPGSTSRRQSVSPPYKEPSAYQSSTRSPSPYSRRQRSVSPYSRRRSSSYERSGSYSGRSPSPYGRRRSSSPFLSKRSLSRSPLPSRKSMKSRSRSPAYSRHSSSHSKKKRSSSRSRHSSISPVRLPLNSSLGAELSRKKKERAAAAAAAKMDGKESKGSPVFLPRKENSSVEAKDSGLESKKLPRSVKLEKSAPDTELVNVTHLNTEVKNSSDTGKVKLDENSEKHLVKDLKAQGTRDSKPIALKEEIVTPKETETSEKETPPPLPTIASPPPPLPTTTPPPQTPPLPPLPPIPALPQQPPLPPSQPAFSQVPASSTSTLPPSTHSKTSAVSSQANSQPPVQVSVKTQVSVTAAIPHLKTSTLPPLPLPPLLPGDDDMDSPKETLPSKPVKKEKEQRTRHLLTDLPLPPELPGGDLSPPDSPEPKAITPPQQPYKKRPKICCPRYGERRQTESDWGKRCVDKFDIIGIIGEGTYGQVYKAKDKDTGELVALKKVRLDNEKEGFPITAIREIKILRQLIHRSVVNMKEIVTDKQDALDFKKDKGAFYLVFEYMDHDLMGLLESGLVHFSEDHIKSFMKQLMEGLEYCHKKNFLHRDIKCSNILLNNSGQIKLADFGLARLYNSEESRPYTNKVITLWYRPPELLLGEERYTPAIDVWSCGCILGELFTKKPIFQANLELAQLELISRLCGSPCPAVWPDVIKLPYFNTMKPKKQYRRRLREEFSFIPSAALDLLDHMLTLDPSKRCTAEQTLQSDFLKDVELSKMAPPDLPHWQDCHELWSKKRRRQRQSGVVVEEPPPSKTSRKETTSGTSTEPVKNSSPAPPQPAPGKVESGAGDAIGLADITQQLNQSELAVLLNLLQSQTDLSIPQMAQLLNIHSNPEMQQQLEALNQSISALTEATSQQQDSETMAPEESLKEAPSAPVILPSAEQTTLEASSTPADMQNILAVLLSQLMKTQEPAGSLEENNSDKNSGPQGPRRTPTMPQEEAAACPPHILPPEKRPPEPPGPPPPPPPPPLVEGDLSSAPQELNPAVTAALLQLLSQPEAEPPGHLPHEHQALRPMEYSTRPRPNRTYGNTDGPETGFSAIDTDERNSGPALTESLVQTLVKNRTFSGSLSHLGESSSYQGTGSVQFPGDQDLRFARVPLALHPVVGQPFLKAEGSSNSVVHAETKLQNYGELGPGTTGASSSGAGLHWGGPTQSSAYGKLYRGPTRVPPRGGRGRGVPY
T1 sequence (O75909 whole entry partner): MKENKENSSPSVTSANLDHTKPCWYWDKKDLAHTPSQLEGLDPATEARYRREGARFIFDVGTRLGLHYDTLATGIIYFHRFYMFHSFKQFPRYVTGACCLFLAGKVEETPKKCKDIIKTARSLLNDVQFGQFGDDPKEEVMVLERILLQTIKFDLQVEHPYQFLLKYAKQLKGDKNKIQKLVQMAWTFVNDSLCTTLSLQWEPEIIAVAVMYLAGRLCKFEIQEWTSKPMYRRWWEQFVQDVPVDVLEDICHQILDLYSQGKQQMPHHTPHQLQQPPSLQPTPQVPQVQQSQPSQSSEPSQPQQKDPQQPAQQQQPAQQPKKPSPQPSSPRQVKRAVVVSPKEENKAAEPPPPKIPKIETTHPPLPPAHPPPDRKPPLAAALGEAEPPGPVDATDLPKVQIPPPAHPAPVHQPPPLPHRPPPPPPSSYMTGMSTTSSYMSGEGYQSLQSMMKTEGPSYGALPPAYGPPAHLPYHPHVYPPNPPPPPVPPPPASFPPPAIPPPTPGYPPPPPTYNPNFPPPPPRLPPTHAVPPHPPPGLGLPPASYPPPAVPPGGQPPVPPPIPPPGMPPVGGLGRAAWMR
T2 sequence (P50750 whole entry): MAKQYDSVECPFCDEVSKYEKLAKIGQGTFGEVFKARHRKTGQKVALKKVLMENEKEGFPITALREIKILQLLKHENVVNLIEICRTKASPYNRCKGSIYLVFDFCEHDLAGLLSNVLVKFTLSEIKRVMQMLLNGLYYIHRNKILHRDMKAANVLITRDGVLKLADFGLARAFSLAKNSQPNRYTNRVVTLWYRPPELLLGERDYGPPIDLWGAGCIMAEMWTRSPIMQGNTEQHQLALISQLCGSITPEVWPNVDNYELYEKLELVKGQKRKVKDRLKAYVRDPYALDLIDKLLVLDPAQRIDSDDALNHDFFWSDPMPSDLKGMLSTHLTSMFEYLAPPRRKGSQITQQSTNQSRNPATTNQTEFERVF
T2 sequence (O75909 whole entry partner): as the sequence (O75909 whole entry partner) above

- IC50 (CDK12 (cyclin K)): > 10000 nM
- IC50 (CDK9 (cyclin K)): 20 nM
SMILES: N#Cc1cc2cnc(Nc3ccc4c(c3)CCNC4)nc2n(C2CCCC2)c1=O [Compound No. 31, 8-cyclopentyl-7-oxo-2-((1,2,3,4-tetrahydroisoquinolin-6-yl)amino)-7,8-dihydropyrido[2,3-d]pyrimidine-6-carbonitrile]
